# Measurements taken from ChEMBL document CHEMBL2163191, “Antiallergic activity profile in vitro RBL-2H3 and in vivo passive cutaneous anaphylaxis mouse model of new sila-substituted 1,3,4-oxadiazoles” (J Med Chem, 2012).
# Active and inactive are the calls of the source. The rule behind the calls is not given here.
# Experiments:
# RBL-2H3 [1] = test: Antidegranulation effect in DNP-HSA induced rat RBL2H3 cells assessed as IgE/Ag complex-induced degranulation preincubated for 30 mins before DNP-HSA challenge for 15 mins by beta-hexosaminidase release based microplate reader method; assay type: functional, cell-based
# Mus musculus [2] = test: Antiallergic activity in IgE/Ag-induced passive cutaneous anaphylactic ICR mouse model injected with DNP-HSA-Evans blue dye post DNP-IgE challenge at 50 to 100 mg/kg, po 1 hr before antigenic challenge measured after 2 hrs post IgE/Ag challenge; assay type: functional, organism-based
# RBL-2H3 [3] = test: Cytotoxicity against IgE/Ag-stimulated rat RBL2H3 cells at 50 to 200 uM incubated for 23 hrs by Ez-cytox assay; assay type: cell-based; conditions: rbl-2h3, 23 h
# RBL-2H3 [4] = test: Inhibition of PI3K-mediated Akt phosphorylation in IgE/Ag-induced rat RBL2H3 cells incubated in presence of DNP-HSA for 1 hr post compound dosing by Western blotting; assay type: cell-based
# RBL-2H3 [5] = test: Inhibition of TNFalpha mRNA expression in IgE/Ag-stimulated rat RBL2H3 cells incubated in presence of DNP-HSA for 1 hr post compound dosing by RT-PCR; assay type: functional, cell-based
# Mus musculus [6] = test: Antiallergic activity in IgE/Ag-induced passive cutaneous anaphylactic ICR mouse model injected with DNP-HSA-Evans blue dye post DNP-IgE challenge at 50 mg/kg, po 1 hr before antigenic challenge measured after 2 hrs post IgE/Ag challenge; assay type: functional, organism-based; design: dose 50 mg/kg
SMILES,Activity (RBL-2H3 [1]),Activity (Mus musculus [2]),Activity (RBL-2H3 [3]),inhibition (RBL-2H3 [4]),inhibition (RBL-2H3 [5]),Activity (Mus musculus [6])
CC(C)(C)CS(=O)(=O)Cc1nnc(-c2ccc(Cl)cc2)o1,inactive,,,,,
C[Si](C)(C)CS(=O)(=O)Cc1nnc(-c2ccc(Cl)cc2)o1,Dose-dependent effect,Active,Non-toxic,Dose-dependent effect,Dose-dependent effect,
CN(C)CCOC(c1ccccc1)c1ccccc1,,,,,,Active
